Values after ≈ are worked out from the molar mass of the structure shown. Where two headings read alike, the source gives them in different places. Marks after values point to notes of the source that are not given here.
What was measured:
[1] = mice, IV administration; previous investigation; cited from earlier work
Protocol: For the characterization of the therapeutic potential of the lead compound 4e, an acute toxicity test for an IV single-dose administration was also carried out (Table 2). […] The drug administration in doses of 130–190 mg/kg led to the death of some animals from 2 to 15 min after injections as a result of cardiac and respiratory arrest against the background of neurotoxicity. […] The quantitative parameters of acute toxicity (LD50 and MTD (LD10) values ...

[2] = tested on: S. aureus 3797; type: cell-based; conditions: strain resistant to vancomycin; broth dilution micromethod, CLSI; modal values (or range) of 3–5 independent tests
Text: (§1) The antimicrobial activity of semisynthetic derivatives of eremomycin 4a–q was studied in comparison with vancomycin on a wide panel of Gram-positive bacteria sensitive (Staphylococcus aureus ATCC 29213, S. aureus R-2, S. haemoliticus 602, S. pneumoniae ATCC 6305, Enteroccus faecium 4, and E. faecalis 559) and resistant to vancomycin (S. aureus 3797, S.aureus 3798, E. faecium 2, E. faecium 3576, E. faecalis 9, E. faecalis 583, and E. gallinarum BΠ 4147), information about the strains given in Table S3. The minimum microbial inhibitory concentration (MIC) for the test compounds was determined by the broth dilution micromethod according to CLSI guidelines, and vancomycin and a standard strain S. aureus ATCC 29213 used as controls (Figure 2 and Tables S4 and S5).
(§2) Table S5. Antibacterial activity of vancomycin and derivatives 4a–q against resistant Gram-positive bacteria.
(§3) Strain/MIC (minimum inhibitory concentration; μg/ml)
(§4) Compound m n R S.aureus 3797 S.aureus 3798 E. faecium 2 E. faecium 3576 E. faecalis 9 E. faecalis 583 E. gallinarum
(§5) *MICs are presented as modal values for 3–5 independently replicate MIC tests for each strain and for the antibiotics. In the range of the obtained MIC
(§6) values, the obtained modal values are highlighted in bold.

[3] = tested on: E. faecalis 9; type: cell-based; conditions: strain resistant to vancomycin; broth dilution micromethod, CLSI; modal values (or range) of 3–5 independent tests
Text: as §1, §2, §3, §4, §5, §6

[4] = tested on: E. faecium 3576; type: cell-based; conditions: strain resistant to vancomycin; broth dilution micromethod, CLSI; modal values (or range) of 3–5 independent tests
Text: as §1, §2, §3, §4, §5, §6

[5] = tested on: E. faecium 2; type: cell-based; conditions: strain resistant to vancomycin; broth dilution micromethod, CLSI; modal values (or range) of 3–5 independent tests
Text: as §1, §2, §3, §4, §5, §6

[6] = tested on: S.aureus 3798; type: cell-based; conditions: strain resistant to vancomycin; broth dilution micromethod, CLSI; modal values (or range) of 3–5 independent tests
Text: as §1, §2, §3, §4, §5, §6

[7] = tested on: E. faecalis 583; type: cell-based; conditions: strain resistant to vancomycin; broth dilution micromethod, CLSI; modal values (or range) of 3–5 independent tests
Text: as §1, §2, §3, §4, §5, §6

[8] = tested on: E. gallinarum BΠ 4147; type: cell-based; conditions: strain resistant to vancomycin; broth dilution micromethod, CLSI; modal values (or range) of 3–5 independent tests
Text: as §1, §2, §3, §4, §5, §6

[9] = tested on: S. aureus (strain 10, clinical isolate); assay: Mouse staphylococcal sepsis model, single IV administration; type: in vivo, mice (SHK colony); conditions: for Survival: 30 min after infection, n = 10; for ED50: mice infected IV with lethal dose of S. aureus (8 × 10^8 CFU/mouse), single IV dose 30 min after infection, n = 10 per group, observed 14 days, Behrens method
Protocol: A comparative study of the efficacy of eremomycin N-(2-((2-fluorobenzyl)amino)ethyl)amide (4e) and vancomycin was carried out in a mice staphylococcal sepsis model. Healthy female mice of the SHK colony weighing 20–22 g after two-week quarantine were randomized into groups (n = 10) and received S. aureus as the infectious agent (strain 10, clinical isolate, adapted for growth in vivo by five-fold passaging in mice). In the experiment, female mice of the SHK colony weighing 20–22 g were used. S. aureus (strain 10, clinical isolate), adapted for growth in vivo by five-fold passaging in mice, was used as the infectious agent. Initially, the lethal dose (LD100) of staphylococcus was determined for this mouse line using the intravenous infection route. The mice deaths were counted daily for 10 days. Thus, the lethal dose (LD100) was defined as 8 × 10^8 CFU/mouse. Afterwards, the mice were seated in cages of 10 heads and were infected intravenously with S. aureus at a lethal dose, and the efficacy of the tested drugs was determined by the ED50 value (i.e., the dose at which 50% of the experimental animals survive). Then, 30 min after infection, the mice were injected intravenously with eremomycin N-(2-((2-fluorobenzyl)amino)ethyl)amide (4e) at single doses from 0.1 to 2.5 mg/kg. or vancomycin at doses from 2.5 to 7.5 mg/kg. As a control dose, a group of untreated animals infected with a lethal dose of S. aureus was present in the experiment. The determination of ED50 of the tested compounds was carried out in one experiment under a single control using the Behrens method.

[10] = Acute toxicity, single IV injection in mice; type: in vivo, F1 (CBAxC57Bl) mice; conditions: for therapeutic index (TI = LD50/ED50): laboratory animals (mice), IV, LD50 acute toxicity / ED50 staphylococcal sepsis
Protocol: The F1 (CBAxC57Bl) mice (18–20 g) were randomized into groups (n = 6) and received eremomycin N-(2-((2-fluorobenzyl)amino)ethyl)amide 4e through single intravenous injections. The intact animals were used as the control. The substance was dissolved in a 5% glucose solution and was administrated in dosage ranges of 130–200 mg/kg into the tail veins of the mice. The concentration of 4e in the injected solution was 5 mg/mL.
The acute toxicity was estimated by the mortality and survival time, as well as by the body weight gain/loss, food consumption, and clinical symptoms of intoxication, including behavioral reactions. […] The LD50 values and the maximum tolerated doses (MTD = LD10) were calculated using the method of Litchfield and Wilcoxon using the StatPlus Professional 3.8.0 software.

[11] = tested on: E. faecium 4; type: cell-based; conditions: sensitive strain; broth dilution micromethod, CLSI; modal values (or range) of 3–5 independent tests
Text: as §1
(§7) Table S4. Antibacterial activity of vancomycin and derivatives 4a–q against sensitive Gram-positive bacteria.
(§8) Strain/MIC (Minimum inhibitory concentration, μg/ml)*
(§9) Compound m n R S.aureus АТСС S.aureus R-2 S.haemoliticus S.pneumoniae АТСС E. faecium 4 E. faecalis 559
(§10) *MICs are presented as modal values for 3–5 independently replicated MIC tests for each strain and for the antibiotics. In the range of the
(§11) obtained MIC values, the obtained modal values are highlighted in bold.

[12] = tested on: Staphylococcus aureus ATCC 29213; type: cell-based; conditions: vancomycin-sensitive control strain; broth dilution micromethod, CLSI; modal values (or range) of 3–5 independent tests
Text: as §1, §7, §8, §9, §10, §11

[13] = tested on: S. aureus R-2; type: cell-based; conditions: sensitive strain; broth dilution micromethod, CLSI; modal values (or range) of 3–5 independent tests
Text: as §1, §7, §8, §9, §10, §11

[14] = tested on: S. haemoliticus 602; type: cell-based; conditions: sensitive strain; broth dilution micromethod, CLSI; modal values (or range) of 3–5 independent tests
Text: as §1, §7, §8, §9, §10, §11

[15] = tested on: E. faecalis 559; type: cell-based; conditions: sensitive strain; broth dilution micromethod, CLSI; modal values (or range) of 3–5 independent tests
Text: as §1, §7, §8, §9, §10, §11

[16] = tested on: S. pneumoniae ATCC 6305; assay: MIC, broth dilution micromethod (CLSI); type: cell-based; conditions: sensitive strain, modal values (or range) of 3–5 independent tests
Text: as §1, §7, §8, §9, §10, §11

[17] = mouse staphylococcal sepsis model, single IV

Molecule	MIC S.aureus 3797 [2] [µg/mL]	MIC E. faecalis 9 [3] [µg/mL]	MIC E. faecium 3576 [4] [µg/mL]	MIC E. faecium 2 [5] [µg/mL]	MIC S.aureus 3798 [6] [µg/mL]	MIC E. faecalis 583 [7] [µg/mL]	MIC E. gallinarum ВП 4147 [8] [µg/mL]	MIC E. faecium 4 [11] [µg/mL]	MIC S.aureus ATCC 29213 [12] [µg/mL]	MIC S.aureus R-2 [13] [µg/mL]	MIC S.haemoliticus 602 [14] [µg/mL]	MIC E. faecalis 559 [15] [µg/mL]	MIC S.pneumoniae ATCC 6305 [16] [µg/mL]	also measured
CN[C@H](CC(C)C)C(=O)N[C@H]1C(=O)N[C@@H](CC(N)=O)C(=O)N[C@H]2C(=O)N[C@H]3C(=O)N[C@H](C(=O)N[C@H](C(=O)O)c4cc(O)cc(O)c4-c4cc3ccc4O)[C@H](O)c3ccc(c(Cl)c3)Oc3cc2cc(c3O[C@@H]2O[C@H](CO)[C@@H](O)[C@H](O)[C@H]2O[C@H]2C[C@](C)(N)[C@H](O)[C@H](C)O2)Oc2ccc(cc2Cl)[C@H]1O [Vancomycin, vancomycin, reference compound]	8 (≈ 5.52 µM)	8 (≈ 5.52 µM)	> 32	8 (≈ 5.52 µM)	8 (≈ 5.52 µM)	32 (≈ 22.1 µM)	8 (≈ 5.52 µM)	4 (≈ 2.76 µM)	0.25 to 0.5	1 (≈ 0.69 µM)	2 (≈ 1.38 µM)	2 (≈ 1.38 µM)		LD50 [1]: 525 mg/kg; Survival ([9]; dose 2.5 mg/kg, single IV): 20%; Survival ([9]; dose 3.5 mg/kg, single IV): 40%; Survival ([9]; dose 4.5 mg/kg, single IV): 50%; Survival ([9]; dose 5.5 mg/kg, single IV): 80%; Survival ([9]; dose 6.5 mg/kg, single IV): 90%; Survival ([9]; dose 7.5 mg/kg, single IV): 100%; ED50 [9]: 4.1 mg/kg; therapeutic index (TI = LD50/ED50) [10]: 128
Eremomycin N-(2-((4-trifluoromethylbenzyl)amino)ethyl)amide [4q]	2	0.25	4	1 to 2	2	4	4	1	1	2	0.5	2	0.01	
Eremomycin N-(2-((2,6-difluorobenzyl)amino)ethyl)amide [4j]	0.5	0.03	1	0.5 to 1	1	0.5	1	0.25 to 0.5	0.03 to 0.06	0.06	0.125	0.25	0.03	
Eremomycin N-(2-((2-fluorobenzyl)amino)ethyl)amide [4e]	0.5	0.03 to 0.06	0.5 to 1	0.5	1	0.25 to 0.5	0.5	0.25	0.125	0.03 to 0.06	0.125	0.125	0.01	Survival ([9]; dose 0.25 mg/kg, single IV): 30%; Survival ([9]; dose 0.5 mg/kg, single IV): 50%; Survival ([9]; dose 1 mg/kg, single IV): 60%; Survival ([9]; dose 1.5 mg/kg, single IV): 80%; Survival ([9]; dose 2.5 mg/kg, single IV): 100%; ED50 [9]: 0.55 mg/kg; ED50 ratio: times more active than eremomycin [9, 17]: 3.3 times; ED50 ratio: times more effective than vancomycin [9, 17]: 7.5 times; outcome after the highest dose ([10]; 200 mg/kg, single IV, mice): died immediately; delayed death of animals ([10]; 130–200 mg/kg, single IV, mice, observed 30 days): No delayed death; therapeutic index (TI = LD50/ED50) [10]: 318; LD50 ([10]; mice, single IV injection in 5% glucose, 5 mg/mL, n = 6 per group, Litchfield and Wilcoxon, mean (deviation for p ≤ 0.05)): 175.5 (161.7 ÷ 189.8) * mg/kg; MTD (LD10) ([10]; mice, single IV injection, n = 6 per group, Litchfield and Wilcoxon): 144.7 mg/kg
Eremomycin N-(2-((2-chloro-4-fluorobenzyl)amino)ethyl)amide [4l]	2	0.25	2	1	1	1	1	0.25	0.125	0.25	0.125	1	0.03 to 0.06	
Eremomycin N-(2-((3,4-dichlorobenzyl)amino)ethyl)amide [4o]	2	0.25 to 0.5	2	2	1 to 2	2	2	1	1	1	0.5	2	0.5	
Eremomycin N-(2-(benzylamino)ethyl)amide [4a]	0.5	0.06	1 to 2	1	0.5 to 1	0.5	1	0.25 to 0.5	0.25	0.03	0.5	0.25	0.25	

Source: paper PMC8072890, “Aminoalkylamides of Eremomycin Exhibit an Improved Antibacterial Activity” (Pharmaceuticals, 2021)
